Measurements from ChEMBL document CHEMBL4118226, “Discovery of Highly Isoform Selective Orally Bioavailable Phosphoinositide 3-Kinase (PI3K)-γ Inhibitors” (J Med Chem, 2018).

Key:
[1] = Intrinsic clearance in rat hepatocytes assessed as per million cells; assay type: ADME, cell-based, Hepatocyte; conditions: read-out: CLH
[2] = Lipophilicity, log D of the compound at pH 7.4; assay type: physicochemical; conditions: buffer
[3] = Intrinsic clearance in dog hepatocytes assessed as per million cells; assay type: ADME, cell-based, Canis lupus familiaris, Hepatocyte; conditions: read-out: CLH
[4] = Half life in dog; assay type: ADME, organism-based, Canis lupus familiaris; conditions: in vivo
[5] = Clearance in dog; assay type: ADME, organism-based, Canis lupus familiaris; conditions: in vivo
[6] = Oral bioavailability in dog; assay type: ADME, organism-based, Canis lupus familiaris; conditions: in vivo
[7] = Volume of distribution at steady state in dog; assay type: ADME, organism-based, Canis lupus familiaris; conditions: in vivo, read-out: Vdss
[8] = Half life in rat; assay type: ADME, organism-based; conditions: in vivo
[9] = Intrinsic clearance in human hepatocytes assessed as per million cells; assay type: ADME, cell-based, Hepatocyte; conditions: read-out: CLH
[10] = Volume of distribution at steady state in rat; assay type: ADME, organism-based; conditions: in vivo, read-out: Vdss
[11] = Oral bioavailability in rat; assay type: ADME, organism-based; conditions: in vivo
[12] = Clearance in rat; assay type: ADME, organism-based; conditions: in vivo

SMILES	hepatocyte CLint [1]	logD [2]	also measured
CC(=O)Nc1nc(C)c(-c2cc(C)c3c(c2)CN([C@@H](C)C2CC2)C3=O)s1	11 µL/min/1e6 cells	4.3	–
COCCS(=O)(=O)Nc1cc(-c2sc(NC(C)=O)nc2C)cc2c1C(=O)N([C@@H](C)C1CC1)C2	166 µL/min/1e6 cells	3.5	–
CC(=O)Nc1nc(C)c(-c2cc3c(c(NS(C)(=O)=O)c2)C(=O)N([C@@H](C)C2CC2)C3)s1	3.7 to 4 µL/min/1e6 cells	3.3	hepatocyte CLint [3]: 7.6 µL/min/1e6 cells; half-life [4]: 1.3 h; clearance [5]: 6.2 mL/min/kg; bioavailability [6]: 1.6%; Vd [7]: 0.7 L/kg; half-life [8]: 6.7 h; hepatocyte CLint [9]: 3.4 µL/min/1e6 cells; Vd [10]: 0.4 L/kg; bioavailability [11]: 49%; clearance [12]: 0.7 mL/min/kg
Cc1cc(-c2cnc3[nH]ccc3n2)cc2c1C(=O)N([C@@H](C)C1CC1)C2	146 µL/min/1e6 cells	4.3	–
CC(=O)Nc1nc(C)c(-c2cc(Cl)c3c(c2)CN([C@@H](C)C2CC2)C3=O)s1	3 µL/min/1e6 cells	3.9	–
CC(=O)Nc1nc(C)c(-c2cc3c(c(S(=O)(=O)CCCO)c2)C(=O)N([C@@H](C)C2CC2)C3)s1	6 µL/min/1e6 cells	1.9	–

Now from value to compound, other results behind:

hepatocyte CLint [1]	logD [2]	SMILES	also measured
< 2 µL/min/1e6 cells	2.5	CC(=O)Nc1nc(C)c(-c2cc3c(c(S(N)(=O)=O)c2)C(=O)N([C@@H](C)C2CC2)C3)s1	–
43 µL/min/1e6 cells	2.6	Cc1cc(-c2nccnc2N)cc2c1C(=O)N([C@@H](C)C1CC1)C2	–
56 µL/min/1e6 cells	2.7	COCCNS(=O)(=O)c1cc(-c2sc(NC(C)=O)nc2C)cc2c1C(=O)N([C@@H](C)C1CC1)C2	–
2 µL/min/1e6 cells	2.6	C[C@@H](C1CC1)N1Cc2cc(-c3cnc(N)nc3)cc(Cl)c2C1=O	–
1.7 to 2 µL/min/1e6 cells	2.4	CC(=O)Nc1nc(C)c(-c2cc3c(c(S(C)(=O)=O)c2)C(=O)N([C@@H](C)C2CC2)C3)s1	hepatocyte CLint [3]: 1 µL/min/1e6 cells; half-life [4]: 3.9 h; Vd [7]: 1.1 L/kg; half-life [8]: 2.3 h; hepatocyte CLint [9]: 0.4 µL/min/1e6 cells; Vd [10]: 1.2 L/kg; bioavailability [11]: 51%; clearance [12]: 6.3 mL/min/kg
6 µL/min/1e6 cells	3.9	CC(=O)Nc1nc(C)c(-c2cc(Cl)c3c(c2)CN([C@H](C)C2CC2)C3=O)s1	–
4.5 to 5 µL/min/1e6 cells	3	CNS(=O)(=O)c1cc(-c2sc(NC(C)=O)nc2C)cc2c1C(=O)N([C@@H](C)C1CC1)C2	hepatocyte CLint [3]: 2.1 µL/min/1e6 cells; half-life [4]: 12 h; clearance [5]: 2.1 mL/min/kg; bioavailability [6]: 44%; Vd [7]: 2.2 L/kg; half-life [8]: 2.6 h; hepatocyte CLint [9]: 0.5 µL/min/1e6 cells; Vd [10]: 1 L/kg; bioavailability [11]: 30%; clearance [12]: 4.4 mL/min/kg
4 µL/min/1e6 cells	3.8	CNC(=O)c1nc(-c2cc(C)c3c(c2)CN([C@@H](C)C2CC2)C3=O)cnc1N	–
2 µL/min/1e6 cells	3.8	CC(=O)Nc1ncc(-c2cc(Cl)c3c(c2)CN([C@@H](C)C2CC2)C3=O)s1	–
